# Results from patent EP3417074B1, “ANALYTICAL METHODS AND ARRAYS FOR USE IN THE SAME” (SenzaGen AB, priority 2016, dated 2017).
# “And” between values parts separate entries of the source, which are not always exact repeats. Identical values can stand only once. “Also recorded” adds a separate entry of the source. Counter-ions that a name gives are not always drawn. Like-named read-outs stand apart in the source and are kept apart here.
# Key:
# [1] = cited from earlier work; for binary class (HP*): Table 1, based on [41] where available, HP 1-4=S, 5-6=NS, otherwise according to CLP
# MUTZ-3 cells [2] = assay: GARD random forest model for prediction of CLP categories (52 transcripts, Example A); conditions: for predicted CLP: Suppl. Table 1, separate replicates in the test set; for GARD predicted CLP: Table 6, independent test set, majority voting across replicates; for CLP category predicted by the random forest model: test set, majority votes
# MUTZ-3 cells [3] = assay: GARD binary classification (SVM on GARD prediction signature, 200 transcripts); conditions: for GARD binary prediction: Table 1, sensitizer if median calibrated SVM DV of replicates > 0; for SVM DV: Table 8, average SVM decision value derived from triplicates
# Source text: The SVM model had been developed for binary classifications (sensitizer versus non-sensitizer).
# human skin = conditions: cited from earlier work; for Human potency [41]: Table 6, test set
# MUTZ-3 cells [4] = assay: Cytotoxicity / viability by flow cytometry (propidium iodide); conditions: Table 1, 24 hours exposure
Compound,binary class ([1]; Table 4),SVM DV (MUTZ-3 cells [3]),HP (human skin; Table 4),cytotox (MUTZ-3 cells [4]),further results
CCCCBr [1-bromobutane],non-sens,–,–,–,predicted CLP (MUTZ-3 cells [2]): no cat; GARD predicted CLP (MUTZ-3 cells [2]): no cat
"O=[N+]([O-])c1ccc(F)c([N+](=O)[O-])c1 [2,4-Dinitrofluorobenzene]",sens,–,–,–,binary class (HP*) [1]: S; GARD binary prediction (MUTZ-3 cells [3]): S
"O=[N+]([O-])c1ccc(Cl)c([N+](=O)[O-])c1 [2,4-dinitrochlorobenzene]",sens,"6,31",–,–,"HP (human skin): 1; Human potency (human skin): 1; binary class ([1]; Table 2, benchmark chemicals): sens"
Nc1ccccc1O [2-aminophenol],–,"5,98",–,–,HP (human skin): 2; Human potency (human skin): 2
C=CC(=O)OCCO [2-hydroxyethyl acrylate],–,"8,87",–,–,–
Sc1nc2ccccc2s1 [2-mercaptobenzothiazole],sens,"2,52",3,–,Human potency (human skin; Table 8): 3
Cc1cccc(O)c1O [3-Methylcatechol],sens,–,–,yes,binary class (HP*) [1]: S; GARD binary prediction (MUTZ-3 cells [3]): S
O=[N+]([O-])c1ccc(CBr)cc1 [4-nitrobenzylbromide],sens,–,–,–,–
Nc1ccc(C(=O)O)cc1 [PABA],–,"-1,04",–,–,Human potency (human skin): 5
CC1(C)S[C@@H]2[C@H](NC(=O)Cc3ccccc3)C(=O)N2[C@H]1C(=O)O [Penicillin G],–,"1,06",–,–,Human potency (human skin; Table 8): 3
CC(O)CO (stereo not drawn) [Propylene glycol],–,"-1,18",–,–,Human potency (human skin; Table 8): 5
CCCCCCCC/C=C\CCCCCCCC(=O)OCCOCC(OCCO)C1OCC(OCCO)C1OCCO (stereo not drawn) [Tween 80],non-sens,"-1,39",6,–,Human potency (human skin; Table 8): 6
CC(C)C1=CC2=CC[C@@H]3[C@](C)(CCC[C@@]3(C)C(=O)O)[C@H]2CC1 [abietic acid],sens,–,3,no,binary class (HP*) [1]: S; GARD binary prediction (MUTZ-3 cells [3]): S
CCCCC/C(=C/c1ccccc1)CO [amylcinnamyl alcohol],–,–,–,yes,HP (human skin): 4; GARD binary prediction (MUTZ-3 cells [3]): S
O=Cc1ccccc1 [benzaldehyde],–,"-2,13",–,–,–
CCOC(=O)c1ccc(N)cc1 [benzocaine],sens,–,4,no,binary class (HP*) [1]: S; binary classification according to the established GARD model (MUTZ-3 cells [3]; sensitizing chemicals close to the cut-off defined by benchmark samples): misclassified
OCc1ccccc1 [benzyl alcohol],non-sens,–,–,no,–
O=C(OCc1ccccc1)c1ccccc1 [benzyl benzoate],–,–,–,yes,GARD binary prediction (MUTZ-3 cells [3]): S; predicted CLP (MUTZ-3 cells [2]): 1B; GARD predicted CLP (MUTZ-3 cells [2]): 1B
Clc1ccccc1 [chlorobenzene],–,"-1,63",–,–,HP (human skin): 6; Human potency (human skin): 6
CN(C)CCCN1c2ccccc2Sc2ccc(Cl)cc21 [chlorpromazine],sens,–,3,yes,binary class (HP*) [1]: S; GARD binary prediction (MUTZ-3 cells [3]): S
O=CC=Cc1ccccc1 [cinnamaldehyde],–,–,–,–,HP (human skin): 2

Compound,binary class ([1]; Table 4),SVM DV (MUTZ-3 cells [3]),HP (human skin; Table 4),cytotox (MUTZ-3 cells [4]),further results
OCC=Cc1ccccc1 [cinnamyl alcohol],sens,"2,94",3,–,Human potency (human skin; Table 8): 3
CC(C)=CCCC(C)=CC=O [citral],sens,–,–,yes,HP (human skin): 3; binary class (HP*) [1]: S; GARD binary prediction (MUTZ-3 cells [3]): S
O=C(O)CC(O)(CC(=O)O)C(=O)O [citric acid],–,–,–,no,–
CC(C)=CCCC(C)CCO (stereo not drawn) [citronellol],sens,–,5,no,GARD binary prediction (MUTZ-3 cells [3]): S
Clc1nc(Cl)nc(Cl)n1 [cyanuric chloride],sens,–,–,yes,binary class (HP*) [1]: S; predicted CLP (MUTZ-3 cells [2]): 1B and no cat (2×); GARD predicted CLP (MUTZ-3 cells [2]): no cat; CLP category predicted by the random forest model (MUTZ-3 cells [2]): no cat; also recorded: no category
OCCNCCO [diethanolamine],sens,–,–,no,HP (human skin): 5
CCOC(=O)/C=C\C(=O)OCC [diethyl maleate],sens,–,2,–,human potency category (human skin; Basketter et al. [41]): 2; Human potency [41] (human skin): 2; predicted CLP (MUTZ-3 cells [2]): 1A; GARD predicted CLP (MUTZ-3 cells [2]): 1A; CLP category predicted by the random forest model (MUTZ-3 cells [2]): 1A
CCOC(=O)c1ccccc1C(=O)OCC [diethyl phthalate],non-sens,"-2,15",–,–,Human potency [41] (human skin): 6; HP (human skin): 6; Human potency (human skin): 6; predicted CLP (MUTZ-3 cells [2]): no cat; GARD predicted CLP (MUTZ-3 cells [2]): no cat
O=c1c(-c2ccccc2)c1-c1ccccc1 [diphenylcyclopropenone],sens,–,1,–,–
NCCN [ethylenediamine],–,"1,12",–,–,–
CC(C)=CCC/C(C)=C/CO [geraniol],–,"1,76",–,–,–
O=CCCCC=O [glutaraldehyde],sens,–,2,yes,Human potency [41] (human skin): 2; binary class (HP*) [1]: S; GARD binary prediction (MUTZ-3 cells [3]): S; predicted CLP (MUTZ-3 cells [2]): 1A; GARD predicted CLP (MUTZ-3 cells [2]): 1A
OCC(O)CO [glycerol],–,"-2,05",6,–,Human potency (human skin; Table 8): 6
O=CC=O [glyoxal],–,"1,08",–,–,HP (human skin): 2; Human potency (human skin): 2
CCCCCC [hexane],non-sens,–,6,–,–
CCCCCCOC(=O)c1ccccc1O [hexyl salicylate],sens,–,–,yes,HP (human skin): 4; binary class (HP*) [1]: S; GARD binary prediction (MUTZ-3 cells [3]): S
CCCCCCC(C=O)=Cc1ccccc1 [hexylcinnamic aldehyde],sens,"1,24",5,–,"HP (human skin; Table 2, benchmark chemicals): 5; Human potency (human skin; Table 8): 5; binary class ([1]; Table 2, benchmark chemicals): sens"
Oc1ccc(O)cc1 [hydroquinone],sens,–,3,–,–
CC(CC=O)CCCC(C)(C)O (stereo not drawn) [hydroxycitronellal],sens,–,4,–,–
CC=Cc1ccc(O)c(OC)c1 [isoeugenol],sens,"1,91",2,–,Human potency (human skin; Table 8): 2
CC(C)O [isopropanol],non-sens,"-1,37",5,–,Human potency (human skin; Table 8): 5

Compound,binary class ([1]; Table 4),SVM DV (MUTZ-3 cells [3]),HP (human skin; Table 4),cytotox (MUTZ-3 cells [4]),further results
CCCCCCCCCCCCCC(=O)OC(C)C [isopropyl myristate],sens,–,5,no,–
CC(O)C(=O)O (stereo not drawn) [lactic acid],–,"-2,38",–,–,HP (human skin): 6; Human potency (human skin): 6
CCCCCCCCCCCCOC(=O)c1cc(O)c(O)c(O)c1 [lauryl gallate],sens,–,2,–,–
C=CC(C)(O)CCC=C(C)C (stereo not drawn) [linalool],sens,–,4,no,Human potency [41] (human skin): 4; binary class (HP*) [1]: S; predicted CLP (MUTZ-3 cells [2]): no cat and 1B (2×); GARD predicted CLP (MUTZ-3 cells [2]): 1B
CCCCCC#CC(=O)OC [methyl heptine carbonate],sens,–,2,yes,binary class (HP*) [1]: S; GARD binary prediction (MUTZ-3 cells [3]): S
COC(=O)c1ccccc1O [methyl salicylate],non-sens,"-1,53",5,–,Human potency (human skin; Table 8): 5
N#CCCC(Br)(C#N)CBr (stereo not drawn) [methyldibromo glutaronitrile],sens,–,2,–,–
CCCCCCCC(=O)O [octanoic acid],non-sens,"-1,19",–,–,Human potency (human skin; Table 8): 6; HP (human skin): 6
O=C(O)c1ccc(O)cc1 [p-hydroxybenzoic acid],non-sens,–,–,–,–
Nc1ccc(N)cc1 [p-phenylenediamine],sens,"5,32",–,–,"Human potency (human skin; Table 8): 1; HP (human skin): 1; binary class ([1]; Table 2, benchmark chemicals): sens"
Oc1c(Cl)c(Cl)c(Cl)c(Cl)c1Cl [pentachlorophenol],sens,–,–,no,HP (human skin): 5
O=CCc1ccccc1 [phenyl acetaldehyde],sens,–,–,–,–
O=C(Oc1ccccc1)c1ccccc1 [phenyl benzoate],sens,–,3,–,–
[K+].[K+].[O]=[Cr](=[O])([O-])[O][Cr](=[O])(=[O])[O-] [potassium dichromate],sens,"8,45",1,–,Human potency (human skin; Table 8): 1
Oc1cccc(O)c1 [resorcinol],–,"1,03",4,–,"HP (human skin; Table 2, benchmark chemicals): 4; Human potency (human skin; Table 8): 4"
O=C(O)c1ccccc1O [salicylic acid],–,"-1,41",–,–,HP (human skin): 6; Human potency (human skin): 6
O=C(O)C(O)C(O)C(=O)O (stereo not drawn) [tartaric acid],–,–,–,no,–
CN(C)C(=S)SSC(=S)N(C)C [tetramethylthiuram disulfide],–,–,–,–,HP (human skin): 3
chloroanilin,sens,–,–,–,–
xylene,–,–,6,–,Human potency [41] (human skin): 6
